Reference: patent US20160151461A1, “Cardio-Metabolic and Vascular Effects of GLP-1 Metabolites” (THE TRUSTEES OF THE UNIVERSITY OF PENNSYLVANIA, priority 2013, published 2016)
No end group written: not given here.

What was measured:
[1] = system: conscious chronically instrumented dogs with pacing induced heart failure; assay: pacing induced model of dilated cardiomyopathy in conscious chronically instrumented dogs (72 hours of rapid ventricular pacing); format: in vivo; conditions: after 72 hours of rapid ventricular pacing, vs Control
Method: In order to compare the vasoactive effects of different classes of incretins, experiments were designed to study the pacing induced model of dilated cardiomyopathy in conscious chronically instrumented dogs (FIG. 3). These animals were instrumented to examine the effects of equal concentrations of various classes of incretins on coronary blood flow and renal blood flow. All dogs underwent 72 hours of rapid ventricular pacing following which coronary flow responses were measured (Control). Rapid pacing was associated with 30-35% declines in coronary blood flow and renal blood flow respectively. […] This supports the notion that the native peptide and active metabolites have vasoactive as well as glucose-stimulatory properties. The renal vascular effects support the claims for use in heart failure complicated by renal failure (cardio-renal syndrome). The coronary vasodilator properties support the claims for the use in acute coronary syndromes and microvascular angina.

AMP kinase = assay: isolated isovolumic rat heart, activation of AMP kinase; conditions: for AMPK activation in presence of EXE (inhibits activation of the GLP-1 receptor): with EXE; for AMPK activation in presence of pertussus toxin (PTX): with PTX (Gi); for AMPK activation in presence of STO609 (CAM kinase): with STO609
Description: It is largely unknown how GLP-1 stimulates glucose uptake independent of insulin. A candidate mechanism involves the activation of AMP kinase which causes GLUT translocation and glucose uptake independent of insulin. The isolated isovolumic rat heart was studied as a model in which myocardial specific responses can be observed (FIG. 4).

[2] = system: conscious, chronically instrumented dogs; assay: rapid pacing induced stress (72 hour) in conscious, chronically instrumented dogs, hemodynamic measurements; format: in vivo; conditions: 72 hours rapid pacing stress, vs sham vehicle
Description: FIG. 7 illustrates characteristic instrumentation of conscious, chronically instrumented dogs studied in the laboratory. Under sterile surgical technique, the animals are instrumented as indicated and allowed to recover fully from their surgery. LV, aortic, and left atrial catheters were used to measure pressures. LV Konigsberg® transducer was used to measure isovolumic contractility and relaxation as measures of systolic and diastolic function. Ultrasonic dimension crystals were used to measure LV shortening and LV filling rates. Pacing leads were attached to the left atrial appendage. Transonics® flow probes were placed around the left circumflex coronary artery and right renal artery to measure coronary and renal blood flow.
Experiments were performed where 25 conscious, chronically instrumented dogs (FIG. 7) were subjected to a rapid pacing induced stress which recapitulates the hemodynamic perturbations experienced by patients with sudden onset of paroxysmal atrial fibrillation (FIG. 8). Dogs were studied before and daily during the 72 hour pacing stress. […] All measurements were made during intrinsic sinus rhythm 20-30 minutes after cessation of pacing. Hemodynamic measurements included: • LV systolic and diastolic pressures, mean arterial pressures, heart rate • Systolic function: LV contractility (systolic contractile function), LV fractional shortening • Diastolic function: LV isovolumic relaxation time constant, LV filling rate • Flows: systemic, coronary and renal blood flows

myocardium; donor organs = assay: myocardial glucose uptake and preconditioning of donor organs against ischemic injury (summary statement)
[3] = system: normal, conscious, chronically instrumented dogs; assay: hyperglycemic clamp studies in normal, conscious, chronically instrumented dogs; format: in vivo
Method: To determine the effect of GLP-1 (32-36) on coronary blood flow, hyperglycemic clamp studies were conducted in normal, conscious, chronically instrumented dogs (n=3), in which plasma glucose was raised to 180 mg/dl by continuous infusion of glucose (FIG. 1). The plasma glucose concentration was monitored continuously as was plasma insulin response. In the control studies, the 5 dogs underwent the 3 hour hyperglycemic clamp. On a separate occasion, the same animals underwent a 3 hour hyperglycemic clamp in which GLP-1 (32-36) was infused beginning in the second hour.
Myocardial glucose uptake is calculated as the product of the difference in the arterial-coronary sinus glucose content and the average coronary blood flow. The increase in myocardial glucose uptake is in excess of that attributable to the increase in coronary blood flow alone.

[4] = system: patients with advanced heart failure; conditions: 5 weeks of continuous infusion, NYHA Class IIIB and IV; cited from earlier work
[5] = system: patients with mild heart failure; conditions: infused for 48 hours, NYHA Class II; cited from earlier work
advanced heart failure = conditions: cited from earlier work
[6] = system: large animal models of advanced heart failure; conditions: cited from earlier work
[7] = in vivo; cited from earlier work

Glu-Gly-Thr-Phe-Thr-Ser-Asp-Val-Ser-Ser-Tyr-Leu-Glu-Gly-Gln-Ala-Ala-Lys-Glu-Phe-Ile-Ala-Trp-Leu-Val-Lys-Gly-Arg (EGTFTSDVSSYLEGQAAKEFIAWLVKGR-NH2) [GLP-1 (9-36) amide]
coronary blood flow [1]: preserved coronary and renal blood flow to a greater extent than seen in control | renal blood flow [1]: preserved coronary and renal blood flow to a greater extent than seen in control | phosphorylation and activation of AMP kinase (AMP kinase; 60 minutes of perfusion): increased the phosphorylation and the activation of AMP kinase | AMPK activation in presence of EXE (inhibits activation of the GLP-1 receptor) (AMP kinase): GLP-1 receptor independent | AMPK activation in presence of EXE (inhibits activation of the GLP-1 receptor) (AMP kinase; listed as GLP-1 (9-36)): not blocked | AMPK activation under neuroendopeptidase inhibition (NEPI) (AMP kinase; with NEPI): abolished | AMPK activation in presence of pertussus toxin (PTX) (AMP kinase): pertussus toxin (Gi) and Ca-Calmodulin dependent | AMPK activation in presence of pertussus toxin (PTX) (AMP kinase; listed as GLP-1 (9-36)): blocked by pertussus toxin | AMPK activation in presence of STO609 (CAM kinase) (AMP kinase): pertussus toxin (Gi) and Ca-Calmodulin dependent | AMPK activation in presence of STO609 (CAM kinase) (AMP kinase; listed as GLP-1 (9-36)): blocked by STO609 | LV systolic and diastolic function [2]: mitigated the declines | coronary blood flow [2]: preserved | renal blood flow [2]: preserved | systemic vascular resistance [2]: mitigated the declines in LV systolic and diastolic function and the rise | preconditioning donor organs against ischemic injury (myocardium; donor organs): active | stimulating glucose uptake into myocardium in a non-insulin dependent fashion (myocardium; donor organs): active

Leu-Val-Lys-Gly-Arg (LVKGR-NH2) [GLP-1 (32-36) amide]
increase in coronary blood flow ([3]; 3 hour hyperglycemic clamp, plasma glucose 180 mg/dl, peptide infused beginning in the second hour, vs control clamp): significantly greater increase | increase in myocardial glucose uptake ([3]; hyperglycemic clamp, matched hyperinsulinemia, vs control): significantly greater increase | preconditioning donor organs against ischemic injury (myocardium; donor organs): active | stimulating glucose uptake into myocardium in a non-insulin dependent fashion (myocardium; donor organs): active

His-Ala-Glu-Gly-Thr-Phe-Thr-Ser-Asp-Val-Ser-Ser-Tyr-Leu-Glu-Gly-Gln-Ala-Ala-Lys-Glu-Phe-Ile-Ala-Trp-Leu-Val-Lys-Gly-Arg [GLP-1 (7-36) amide]
coronary blood flow [1]: preserved coronary and renal blood flow to a greater extent than seen in control | renal blood flow [1]: preserved coronary and renal blood flow to a greater extent than seen in control | LV systolic and diastolic function [2]: mitigated the declines | coronary blood flow [2]: preserved | renal blood flow [2]: preserved | systemic vascular resistance [2]: mitigated the declines in LV systolic and diastolic function and the rise | functional outcomes [4]: improved functional outcomes | benefit [5]: no benefit | elevated levels of plasma glucagon (advanced heart failure): suppresses | insulin action (advanced heart failure): augments | expression of mitochondrial uncoupling protein 3 (UCP-3) and mitochondrial cytochrome oxidase (Complex IV) ([6]; in vivo, iv): increased | mitochondrial reactive oxygen species (ROS) generation ([6]; in vivo): decreased | cell survival pathways (ras dependent activation of p38 MAP kinase, induction of NOS2) ([6]; independent of insulin signaling pathways): activates

Glucagon-like peptide-1 [GLP-1]
active half-life time [7]: 1 to 2 min | half-life time in blood [7]: ≤ 5 min
